From ChEMBL document CHEMBL1201862, “PubChem BioAssay data set” (2004)
Calls of active or inactive are those of the source.

Legend:
[1] = biological target: T1, Microphthalmia-associated transcription factor (Homo sapiens, UniProt O75030); assay: reducers of TRPM1 reporter luminescence, concentration series – cell-based, SK-MEL-5, cherry-picked, set 3, MITF inhibitor project, dose response (AID 493073); assay type: functional;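 also: SK-MEL-5 melanoma cells with luciferase driven by the MITF target TRPM1 promoter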
T1 sequence (O75030 whole entry): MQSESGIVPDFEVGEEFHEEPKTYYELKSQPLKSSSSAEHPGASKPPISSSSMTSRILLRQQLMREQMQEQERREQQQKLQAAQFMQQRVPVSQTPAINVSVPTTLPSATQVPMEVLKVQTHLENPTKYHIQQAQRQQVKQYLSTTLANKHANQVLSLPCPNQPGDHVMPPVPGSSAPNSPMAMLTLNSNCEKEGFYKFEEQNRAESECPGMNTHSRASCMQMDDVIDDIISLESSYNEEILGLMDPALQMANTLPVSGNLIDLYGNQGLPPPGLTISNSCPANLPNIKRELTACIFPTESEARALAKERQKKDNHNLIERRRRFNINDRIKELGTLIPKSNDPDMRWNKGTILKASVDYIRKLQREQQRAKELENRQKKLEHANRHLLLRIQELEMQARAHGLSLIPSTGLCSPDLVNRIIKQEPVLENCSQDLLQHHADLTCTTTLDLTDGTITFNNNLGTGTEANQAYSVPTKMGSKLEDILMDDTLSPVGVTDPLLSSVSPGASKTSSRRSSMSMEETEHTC

[2] = Trypanosoma cruzi growth suppression in host cells – NIH3T3 host cells, beta-gal luminescence, confirmation (AID 2044); assay type: functional, cell-based;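 also: intracellular parasites grown in NIH/3T3 mouse fibroblasts as host cells; luminescent beta-galactosidase reporter signal from transgenic T. cruzi replicating inside host cells; inhibitors lower the luminescence signal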
[3] = biological target: T2, Short transient receptor potential channel 4 (Mus musculus, UniProt Q9QUQ5); assay: block of DAMGO-driven TRPC4 calcium entry – cell-based, HEK293 TRPC4/mu-opioid, Fluo-4 calcium, dose response (AID 434942); assay type: functional;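 also: potency of inhibitors blocking the TRPC4 calcium response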
T2 sequence (Q9QUQ5 whole entry): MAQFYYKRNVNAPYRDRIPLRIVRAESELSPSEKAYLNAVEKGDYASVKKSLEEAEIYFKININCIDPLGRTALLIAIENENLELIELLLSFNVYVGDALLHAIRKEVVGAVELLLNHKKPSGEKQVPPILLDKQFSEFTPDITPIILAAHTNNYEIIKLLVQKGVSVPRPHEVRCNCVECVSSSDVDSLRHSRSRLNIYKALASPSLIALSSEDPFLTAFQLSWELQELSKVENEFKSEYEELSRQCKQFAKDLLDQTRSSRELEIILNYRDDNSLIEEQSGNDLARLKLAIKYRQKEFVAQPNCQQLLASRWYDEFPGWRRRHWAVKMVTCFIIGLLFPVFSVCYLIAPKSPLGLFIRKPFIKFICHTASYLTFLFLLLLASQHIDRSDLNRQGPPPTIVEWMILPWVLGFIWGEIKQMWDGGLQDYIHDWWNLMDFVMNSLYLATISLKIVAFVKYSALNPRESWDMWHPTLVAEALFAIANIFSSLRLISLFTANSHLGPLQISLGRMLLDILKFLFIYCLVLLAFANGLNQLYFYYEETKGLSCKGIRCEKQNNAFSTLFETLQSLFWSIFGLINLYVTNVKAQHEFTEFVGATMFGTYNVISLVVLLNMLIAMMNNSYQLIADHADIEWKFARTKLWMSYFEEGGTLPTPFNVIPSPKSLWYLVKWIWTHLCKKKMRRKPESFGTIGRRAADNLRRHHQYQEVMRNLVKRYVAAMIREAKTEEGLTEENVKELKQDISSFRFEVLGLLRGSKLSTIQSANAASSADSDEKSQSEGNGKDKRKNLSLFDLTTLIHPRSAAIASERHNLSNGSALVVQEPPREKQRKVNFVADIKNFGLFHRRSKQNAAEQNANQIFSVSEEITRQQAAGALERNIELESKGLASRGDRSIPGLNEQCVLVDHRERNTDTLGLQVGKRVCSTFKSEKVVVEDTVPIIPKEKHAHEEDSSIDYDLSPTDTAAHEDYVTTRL

[4] = NIH3T3 cell viability loss – ATP luminescence, mouse fibroblasts, counter-screen, dose response (AID 2010); assay type: functional, cell-based;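 also: cells exposed to compound for about 90 hours before reading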
[5] = biological target: T2, Short transient receptor potential channel 4; assay: calcium entry via TRPC4 opening agents – cell-based, HEK293 TRPC4/mu-opioid, Fluo-4 calcium, dose response (AID 434937); assay type: functional
[6] = biological target: T3, Peroxisome proliferator-activated receptor gamma/Nuclear receptor coactivator 2 (Homo sapiens, UniProt P37231); assay type: functional
[7] = biological target: T4, Peroxisome proliferator-activated receptor gamma/Nuclear receptor coactivator 3 (Homo sapiens, UniProt P37231); assay type: functional
HT-1080 = assay: HT1080 cell viability loss – fluorescence readout (AID 620); assay type: functional, cell-based; details: Homo sapiens
[8] = biological target: T5, Peroxisome proliferator-activated receptor gamma/Nuclear receptor coactivator 1 (Homo sapiens, UniProt P37231); assay type: functional
[9] = biological target: T6, Luciferin 4-monooxygenase (Photinus pyralis, UniProt P08659); assay: Counter Screen for Luciferase-based Assay Positives. [Related pubchem assays: 620, 618, 411 ]
[10] = biological target: T6, Luciferin 4-monooxygenase; assay: inhibition of purified Photinus pyralis luciferase – biochemical, luminescence, dose response (AID 1891)
BJ = assay: growth inhibition of engineered Ras-driven BJ cells – cell-based, alamar blue fluorescence, cherrypicked samples, dose response (AID 2631); assay type: functional; details: Homo sapiens;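 also: confirmatory dose-response assay in RAS-dependent BJ fibroblasts engineered with TERT, LT and ST, with cytotoxicity read by fluorescence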
[11] = Luminescence Cell-Based Dose Confirmation HTS to Identify Inhibitors of Platelet Dense Granule Release. [Related pubchem assays: 1663 (Primary HTS), 1678 (Summary of Project)]; assay type: functional
[12] = biological target: T5, Peroxisome proliferator-activated receptor gamma/Nuclear receptor coactivator 1; assay: TR-FRET dose response biochemical High Throughput Screening assay for agonists of the steroid receptor coactivator 1 (SRC-1) recruitment by the peroxisome proliferator-activated receptor gamma (PPAR gamma): non-selective agonists. [Related pubchem assays (depositor defined):AID1300, AID1808, AID504735, AID631]; assay type: protein assay
[13] = biological target: T4, Peroxisome proliferator-activated receptor gamma/Nuclear receptor coactivator 3; assay: TR-FRET dose response biochemical High Throughput Screening assay for agonists of the steroid receptor coactivator 3 (SRC-3) recruitment by the peroxisome proliferator-activated receptor gamma (PPAR gamma): non-selective agonists. [Related pubchem assays: 1301 (Confirmation screen.), 1048 (Primary screen.)]; assay type: functional
[14] = biological target: T3, Peroxisome proliferator-activated receptor gamma/Nuclear receptor coactivator 2; assay: TR-FRET dose response biochemical High Throughput Screening assay for agonists of the steroid receptor coactivator 2 (SRC-2) recruitment by the peroxisome proliferator-activated receptor gamma (PPAR gamma): non-selective agonists. [Related pubchem assays: 1297, 1032 ]; assay type: functional
HEK293 [15] = assay: inhibition of NOD1-driven NF-kB reporter – cell-based, luminescence, uHTS, primary screen (AID 1578); assay type: functional; details: Homo sapiens
HEK293 [16] = assay: cells; assay type: functional, cell-based; details: Homo sapiens
HEK293 [17] = assay: NOD2 signaling inhibitors in MDP-stimulated cells, cell-based, uHTS, luminescence (AID 2001); assay type: functional; details: Homo sapiens
[18] = microbe, parasite or virus in culture; assay type: functional; details: Mycobacterium tuberculosis
HEK293 [19] = assay: cells; assay type: functional, cell-based; details: Homo sapiens; remark: listed apart in the source
Cytochrome P450 2C9 = Cytochrome P450 2C9 (Homo sapiens, UniProt P11712)
Cytochrome P450 1A2 = biological target: T7, Cytochrome P450 1A2 (Homo sapiens, UniProt P05177);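 also: PubChem cytochrome P450 panel assay, CYP1A2 panel member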
T7 sequence (P05177 whole entry): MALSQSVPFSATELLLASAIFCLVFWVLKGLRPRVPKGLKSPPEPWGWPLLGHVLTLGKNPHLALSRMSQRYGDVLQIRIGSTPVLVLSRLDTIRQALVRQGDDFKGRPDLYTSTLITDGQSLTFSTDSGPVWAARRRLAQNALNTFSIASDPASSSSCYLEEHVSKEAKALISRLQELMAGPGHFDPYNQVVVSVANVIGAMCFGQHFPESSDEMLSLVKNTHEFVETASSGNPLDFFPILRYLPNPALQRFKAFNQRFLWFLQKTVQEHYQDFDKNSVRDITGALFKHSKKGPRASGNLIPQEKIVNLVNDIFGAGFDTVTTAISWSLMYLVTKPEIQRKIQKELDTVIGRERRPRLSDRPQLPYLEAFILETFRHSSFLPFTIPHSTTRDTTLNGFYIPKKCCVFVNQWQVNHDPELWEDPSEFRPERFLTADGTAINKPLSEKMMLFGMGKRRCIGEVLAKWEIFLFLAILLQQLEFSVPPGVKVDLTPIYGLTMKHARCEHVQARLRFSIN

[20] = biological target: T8, Voltage-gated N-type calcium channel alpha-1B subunit/Amyloid beta A4 precursor protein-binding family A member 1 (Homo sapiens, UniProt Q00975+Q02410); assay type: protein assay
[21] = biological target: T8, Voltage-gated N-type calcium channel alpha-1B subunit/Amyloid beta A4 precursor protein-binding family A member 1; assay type: protein assay; remark: listed apart in the source

T5 sequence (P37231 whole entry): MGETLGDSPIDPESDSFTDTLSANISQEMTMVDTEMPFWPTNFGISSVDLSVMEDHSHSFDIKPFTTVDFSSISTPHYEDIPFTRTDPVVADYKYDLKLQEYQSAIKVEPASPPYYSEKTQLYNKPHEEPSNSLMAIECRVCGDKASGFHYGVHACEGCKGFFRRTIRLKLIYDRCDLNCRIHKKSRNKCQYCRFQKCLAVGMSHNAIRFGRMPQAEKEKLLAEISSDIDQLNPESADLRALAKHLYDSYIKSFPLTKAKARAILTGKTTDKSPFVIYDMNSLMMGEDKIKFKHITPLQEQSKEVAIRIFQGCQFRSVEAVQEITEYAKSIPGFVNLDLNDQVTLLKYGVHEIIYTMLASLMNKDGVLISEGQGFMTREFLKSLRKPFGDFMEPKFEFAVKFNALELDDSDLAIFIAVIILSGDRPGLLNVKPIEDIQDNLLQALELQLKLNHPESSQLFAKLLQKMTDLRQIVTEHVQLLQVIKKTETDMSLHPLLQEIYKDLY
T5 sequence (Q15788 whole entry, further chain): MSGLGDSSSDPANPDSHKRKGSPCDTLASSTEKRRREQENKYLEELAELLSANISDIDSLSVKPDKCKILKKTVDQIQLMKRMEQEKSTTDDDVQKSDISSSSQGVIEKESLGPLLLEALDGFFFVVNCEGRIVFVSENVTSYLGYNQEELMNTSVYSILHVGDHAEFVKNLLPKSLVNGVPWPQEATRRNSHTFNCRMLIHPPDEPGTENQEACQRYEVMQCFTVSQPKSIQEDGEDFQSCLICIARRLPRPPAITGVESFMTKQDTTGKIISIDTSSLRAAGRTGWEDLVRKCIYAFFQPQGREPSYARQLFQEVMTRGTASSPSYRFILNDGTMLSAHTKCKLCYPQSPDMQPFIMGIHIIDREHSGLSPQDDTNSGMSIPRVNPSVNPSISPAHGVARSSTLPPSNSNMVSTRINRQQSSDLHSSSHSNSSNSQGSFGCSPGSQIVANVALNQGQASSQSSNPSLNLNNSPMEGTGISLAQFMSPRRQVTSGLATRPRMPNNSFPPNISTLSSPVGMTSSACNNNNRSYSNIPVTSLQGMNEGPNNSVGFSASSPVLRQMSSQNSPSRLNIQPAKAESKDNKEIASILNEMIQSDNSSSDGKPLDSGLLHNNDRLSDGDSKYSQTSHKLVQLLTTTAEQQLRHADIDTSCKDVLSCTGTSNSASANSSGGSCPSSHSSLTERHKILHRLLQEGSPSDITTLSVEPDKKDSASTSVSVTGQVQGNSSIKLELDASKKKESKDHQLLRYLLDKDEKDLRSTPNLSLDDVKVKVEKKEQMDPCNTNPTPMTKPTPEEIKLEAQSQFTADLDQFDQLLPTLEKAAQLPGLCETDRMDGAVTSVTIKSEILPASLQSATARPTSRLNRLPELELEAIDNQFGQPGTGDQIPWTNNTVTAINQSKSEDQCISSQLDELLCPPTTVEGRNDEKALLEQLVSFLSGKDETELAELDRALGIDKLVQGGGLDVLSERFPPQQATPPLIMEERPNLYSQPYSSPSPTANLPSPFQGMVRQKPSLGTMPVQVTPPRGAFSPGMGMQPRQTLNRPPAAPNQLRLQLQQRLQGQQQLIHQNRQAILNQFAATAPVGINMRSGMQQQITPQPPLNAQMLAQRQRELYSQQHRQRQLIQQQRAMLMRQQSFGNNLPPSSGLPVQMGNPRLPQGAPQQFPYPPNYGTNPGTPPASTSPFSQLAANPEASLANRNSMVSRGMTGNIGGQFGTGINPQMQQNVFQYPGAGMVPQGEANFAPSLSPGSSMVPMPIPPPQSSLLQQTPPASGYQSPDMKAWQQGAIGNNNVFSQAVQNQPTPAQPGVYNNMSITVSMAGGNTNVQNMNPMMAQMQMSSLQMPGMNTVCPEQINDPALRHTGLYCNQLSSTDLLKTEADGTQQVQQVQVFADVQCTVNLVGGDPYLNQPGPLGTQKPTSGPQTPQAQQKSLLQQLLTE
T4 sequence (P37231 whole entry): as the sequence (P37231 whole entry) above
T4 sequence (Q9Y6Q9 whole entry, further chain): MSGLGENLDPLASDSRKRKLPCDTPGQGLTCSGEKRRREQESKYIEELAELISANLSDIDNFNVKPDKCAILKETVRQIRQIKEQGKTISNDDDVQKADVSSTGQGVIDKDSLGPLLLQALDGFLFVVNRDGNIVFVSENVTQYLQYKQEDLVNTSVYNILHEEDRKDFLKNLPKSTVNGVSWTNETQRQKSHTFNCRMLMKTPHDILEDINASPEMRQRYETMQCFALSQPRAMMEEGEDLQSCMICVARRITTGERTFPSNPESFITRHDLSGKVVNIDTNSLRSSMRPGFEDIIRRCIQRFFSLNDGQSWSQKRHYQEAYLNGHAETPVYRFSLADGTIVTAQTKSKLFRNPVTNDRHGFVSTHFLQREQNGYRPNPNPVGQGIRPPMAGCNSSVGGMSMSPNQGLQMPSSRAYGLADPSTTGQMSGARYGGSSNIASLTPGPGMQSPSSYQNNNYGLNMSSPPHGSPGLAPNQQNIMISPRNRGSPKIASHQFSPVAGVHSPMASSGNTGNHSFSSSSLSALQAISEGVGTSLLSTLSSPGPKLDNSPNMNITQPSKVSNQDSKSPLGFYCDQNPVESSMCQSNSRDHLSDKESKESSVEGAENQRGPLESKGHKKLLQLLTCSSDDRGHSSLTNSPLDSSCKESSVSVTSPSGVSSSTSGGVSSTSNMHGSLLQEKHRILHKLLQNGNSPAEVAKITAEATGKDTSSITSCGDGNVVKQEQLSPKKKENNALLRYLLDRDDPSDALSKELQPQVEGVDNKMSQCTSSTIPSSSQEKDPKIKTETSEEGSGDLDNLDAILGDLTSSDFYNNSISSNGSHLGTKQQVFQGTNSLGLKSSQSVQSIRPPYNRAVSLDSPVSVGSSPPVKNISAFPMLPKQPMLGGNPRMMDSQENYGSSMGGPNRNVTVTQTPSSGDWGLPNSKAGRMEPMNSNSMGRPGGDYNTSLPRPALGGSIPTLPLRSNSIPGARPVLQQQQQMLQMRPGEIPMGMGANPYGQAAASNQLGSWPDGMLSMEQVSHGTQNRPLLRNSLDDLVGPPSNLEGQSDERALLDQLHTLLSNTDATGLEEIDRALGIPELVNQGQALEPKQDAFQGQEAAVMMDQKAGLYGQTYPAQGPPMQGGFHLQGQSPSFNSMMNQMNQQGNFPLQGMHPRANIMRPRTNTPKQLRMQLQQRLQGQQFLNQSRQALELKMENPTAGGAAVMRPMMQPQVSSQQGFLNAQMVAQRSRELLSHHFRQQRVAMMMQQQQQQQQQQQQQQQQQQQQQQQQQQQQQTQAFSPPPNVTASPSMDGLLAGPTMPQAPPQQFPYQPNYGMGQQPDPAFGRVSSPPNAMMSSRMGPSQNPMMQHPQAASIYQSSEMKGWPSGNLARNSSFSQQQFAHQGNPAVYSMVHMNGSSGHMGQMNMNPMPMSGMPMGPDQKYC
T6 sequence (P08659 whole entry): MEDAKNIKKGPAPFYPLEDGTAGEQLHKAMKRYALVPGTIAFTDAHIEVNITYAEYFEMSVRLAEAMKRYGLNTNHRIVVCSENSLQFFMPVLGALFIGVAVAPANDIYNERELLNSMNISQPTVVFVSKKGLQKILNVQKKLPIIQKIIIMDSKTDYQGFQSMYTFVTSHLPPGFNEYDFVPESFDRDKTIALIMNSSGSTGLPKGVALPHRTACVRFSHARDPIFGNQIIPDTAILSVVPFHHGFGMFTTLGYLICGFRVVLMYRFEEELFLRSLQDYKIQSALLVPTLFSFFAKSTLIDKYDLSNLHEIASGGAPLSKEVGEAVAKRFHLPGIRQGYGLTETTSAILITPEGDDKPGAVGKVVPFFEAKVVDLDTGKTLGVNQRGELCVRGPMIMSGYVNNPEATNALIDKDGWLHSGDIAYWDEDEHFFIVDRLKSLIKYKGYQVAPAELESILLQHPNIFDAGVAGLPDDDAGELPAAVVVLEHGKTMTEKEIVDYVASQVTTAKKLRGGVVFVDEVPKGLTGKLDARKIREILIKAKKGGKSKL
Cytochrome P450 2C9, sequence (P11712 whole entry): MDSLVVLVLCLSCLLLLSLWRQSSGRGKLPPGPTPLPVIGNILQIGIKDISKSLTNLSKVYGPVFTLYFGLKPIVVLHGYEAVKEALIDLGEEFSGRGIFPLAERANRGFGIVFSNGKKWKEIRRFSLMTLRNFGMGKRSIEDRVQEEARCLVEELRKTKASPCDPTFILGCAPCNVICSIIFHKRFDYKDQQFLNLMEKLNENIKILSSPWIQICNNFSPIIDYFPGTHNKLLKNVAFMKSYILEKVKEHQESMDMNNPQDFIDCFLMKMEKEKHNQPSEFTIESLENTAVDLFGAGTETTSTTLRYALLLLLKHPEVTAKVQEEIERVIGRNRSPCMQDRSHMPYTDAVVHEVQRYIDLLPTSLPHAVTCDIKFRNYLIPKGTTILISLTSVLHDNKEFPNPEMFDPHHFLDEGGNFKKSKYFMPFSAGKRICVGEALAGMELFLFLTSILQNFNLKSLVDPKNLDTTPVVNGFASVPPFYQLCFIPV

O=C(Nc1cc(-c2nc3ncccc3o2)ccc1Cl)c1ccc([N+](=O)[O-])o1
AC50 [1]: 5.76 µM (active)

COc1cc(CNCCCN2CCOCC2)cc(Br)c1OCc1ccc(Cl)cc1
EC50 [2]: 0.531 µM (active) | EC50 [3]: 5.96 µM (active) | EC50 [4]: 24 µM (active)

CC1CC(C)CN(CCCNC(=O)Cn2cccc2C(=O)c2ccccc2)C1 (configuration not stated)
EC50 [5]: 1.19 µM (active)

O=C(Nc1ccc(N2CCCCC2)cc1)c1ccccc1
EC50 [6]: > 79.4 µM (not active) | EC50 [7]: > 79.4 µM (not active) | EC50 (HT-1080): > 50 µM (not active) | EC50 [8]: > 79.4 µM (not active) | EC50 [9]: 1.28 µM (active)

COc1ccc2nc(NC(=O)c3ccoc3C)sc2c1
EC50 [10]: 0.263 µM (active) | EC50 (BJ): > 133 µM (inactive) | EC50 [11]: 0.468 µM (active)

CC1CCc2nc(NC(=O)CN3CCN(Cc4ccc5c(c4)OCO5)CC3)sc2C1 (configuration not stated)
EC50 [3]: 0.299 µM (active)

O=c1c2cn[nH]c2[nH]c(=S)n1-c1cccc2ccccc12
EC50 [12]: > 79.4 µM (inactive) | EC50 [13]: > 79.4 µM (not active) | EC50 [14]: > 79.4 µM (not active)

N#Cc1c(Cl)nc(SCc2ccccc2)nc1-c1ccccc1
EC50 [12]: 4.02 µM (active) | EC50 [13]: > 79.4 µM (not active) | EC50 [14]: 5.16 µM (active)

CCc1ccc(-c2cc(C)no2)cc1S(=O)(=O)NCCCN1CCN(c2ccccc2)CC1
EC50 (HEK293 [15]): 6.88 µM (active) | IC50 (HEK293 [16]): 7.44 µM (active) | IC50 (HEK293 [17]): 4.26 µM (active) | CC50 [18]: 30.9 µM (active) | IC50 (HEK293 [19]): 4.42 µM (active)

c1ccc(-n2ncc3c2ncn2nc(-c4ccco4)nc32)cc1
EC50 [6]: 16.2 µM (not active) | EC50 [7]: > 79.4 µM (not active) | EC50 [8]: > 79.4 µM (not active)

Cc1cc(Cl)c2oc(C(=O)N(C)Cc3nccn3C)c(C)c2c1
EC50 [3]: 0.531 µM (active)

O=C(NCc1ccc2c(c1)OCO2)Nc1ccc2nsnc2c1
EC50 [6]: 17.8 µM (not active) | EC50 [7]: 29.8 µM (not active) | EC50 [8]: 20.4 µM (not active)

CCn1c(N2CCN(C(=O)Nc3ccc(F)cc3)CC2)nc2ccccc21
AC50 (Cytochrome P450 2C9): inconclusive | AC50 (Cytochrome P450 1A2): 20 µM (inconclusive) | EC50 [5]: 0.944 µM (active)

Cc1ccc(C(=O)C2=C(O)C(=O)N(c3ncccn3)C2c2ccc(Cl)cc2)o1 (configuration not stated)
EC50 [12]: > 79.4 µM (inactive) | EC50 [13]: > 79.4 µM (not active) | EC50 [14]: 35.8 µM (not active)

C=CCOc1ccc(/C=C2\SC(=S)N(N3CCOCC3)C2=O)cc1
IC50 [20]: 4.43 µM (active) | IC50 [21]: > 50 µM (inactive)

O=[N+]([O-])c1cc2c(cc1CNCCc1ccc3c(c1)OCO3)OCO2
EC50 [3]: 1.06 µM (active) | EC50 [5]: 3.35 µM (active)

COc1ccc2sc3c(O)nc4ccccc4c3c2c1
EC50 [6]: 12.1 µM (not active) | EC50 [7]: 11.2 µM (not active) | EC50 [8]: 11 µM (not active)

COc1ccc(NS(=O)(=O)c2ccc3c(c2)Cc2ccccc2-3)cn1
EC50 (HEK293 [15]): 5.22 µM (active) | IC50 (HEK293 [16]): > 20 µM (inactive) | IC50 (HEK293 [17]): 8.27 µM (active) | IC50 (HEK293 [19]): 9.79 µM (active)

COc1ccc(Nc2nc(S(=O)(=O)c3ccc(C)cc3)c(Cl)s2)cc1
EC50 [6]: > 79.4 µM (not active) | EC50 [7]: > 79.4 µM (not active) | EC50 [8]: > 79.4 µM (not active)

Cc1ccccc1Cn1nnc(-c2cccc(C(=O)O)c2)n1
EC50 (HT-1080): > 50 µM (not active) | EC50 [9]: > 100 µM (not active)

COc1cccc(CNC(=O)CSc2cc(=O)n(C)c3ccccc23)c1
EC50 [12]: > 79.4 µM (inactive) | EC50 [13]: > 79.4 µM (not active) | EC50 [14]: > 79.4 µM (not active)
